Source: US20160031855A1, “PROTEIN KINASE INHIBITORS” (ORION CORPORATION, priority 2013, published 2016)

Target: T1, FGFR1 kinase (Homo sapiens, UniProt P11362)
T1 construct: purchased Upstate, USA
Assay: TR-FRET assay with FGFR1 kinase
Format: biochemical
Details: 13 μM ATP; for IC50: dose response, read-out: IC50 of FGFR1 inhibition
Procedure: 1. Inhibition of FGFR1 kinase
Compounds were screened in the TR-FRET assay with FGFR1 kinase. 5 ng of FGFR1 [Upstate, USA] kinase was used for assay. The compound was incubated with the kinase for 30 minutes at room temperature. After the incubation, substrate mix [40 nM Ultra light poly GT (Perkin Elmer, USA) and 13 μM ATP (Sigma)] was added. The above reaction was stopped by the addition of 40 mM EDTA after the 30 min kinase reaction. The Eu-labelled antiphospho-tyrosine antibody [Perkin Elmer, USA] was added at 0.5 nM and the fluorescence emission at 615 nm/665 nm [excitation at 340 nm] was measured. The compounds were initially screened at 100 nM and 1 μM concentrations. The compounds with >50% inhibition at 100 nM of FGFR1 were taken for the full dose response studies. The final DMSO concentration in the assay was 1%. For IC50 determination, ⅓^rd serial dilution was made from the 20 mM DMSO stock solution. 2 μl of these were transferred to the test wells containing […] of the reaction mixture [total reaction volume 20 μl]. The fluorescence was measured in Perkin Elmer Wallac 1420 Multilabel Counter Victor 3. The IC50 was determined by fitting the dose response data to sigmoidal curve fitting equation using GraphPad Prism software V5.

T1 sequence (P11362 22-822): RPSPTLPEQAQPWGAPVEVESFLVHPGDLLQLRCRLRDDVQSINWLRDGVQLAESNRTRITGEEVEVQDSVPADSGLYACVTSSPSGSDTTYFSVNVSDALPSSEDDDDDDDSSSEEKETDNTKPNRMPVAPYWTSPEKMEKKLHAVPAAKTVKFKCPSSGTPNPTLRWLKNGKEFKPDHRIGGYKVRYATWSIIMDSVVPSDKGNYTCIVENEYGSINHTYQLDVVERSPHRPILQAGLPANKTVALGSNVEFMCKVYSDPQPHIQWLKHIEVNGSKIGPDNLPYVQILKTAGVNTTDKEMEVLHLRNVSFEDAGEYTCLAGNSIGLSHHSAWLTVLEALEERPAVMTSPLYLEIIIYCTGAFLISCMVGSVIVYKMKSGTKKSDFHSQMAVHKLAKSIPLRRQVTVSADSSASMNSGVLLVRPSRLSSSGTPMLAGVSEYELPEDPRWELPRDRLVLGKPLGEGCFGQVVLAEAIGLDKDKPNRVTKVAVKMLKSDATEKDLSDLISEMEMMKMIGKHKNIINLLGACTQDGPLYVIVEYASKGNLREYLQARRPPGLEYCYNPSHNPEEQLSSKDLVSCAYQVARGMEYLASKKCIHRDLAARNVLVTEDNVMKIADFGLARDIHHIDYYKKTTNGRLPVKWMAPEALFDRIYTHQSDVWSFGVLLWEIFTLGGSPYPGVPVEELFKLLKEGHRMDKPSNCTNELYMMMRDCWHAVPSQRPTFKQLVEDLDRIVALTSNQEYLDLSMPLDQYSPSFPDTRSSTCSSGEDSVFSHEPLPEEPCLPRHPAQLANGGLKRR

SMILES	IC50 [nM]	inhibition at 1 µM (compound at 1000 nM) [%]	Inhibition (%) of FGFR1 at 1000 nM (compound at 1000 nM) [%]
Cn1cc(-c2ccc3c(c2)ncn3-c2cc(-c3ncccc3Cl)cc(NS(=O)(=O)C3CC3)n2)cn1 [Example 29, N-(3-chloro-6′-(5-(1-methyl-1H-pyrazol-4-yl)-1H-benzo[d]imidazol-1-yl)-[2,4′-bipyridin]-2′-yl)cyclopropanesulfonamide]	9.7	97	
Cn1cc(-c2ccc3c(c2)ncn3-c2cc(NS(=O)(=O)C3CC3)nc(-c3ccc(F)cc3F)c2)cn1 [Example 43, N-(6-(2,4-difluorophenyl)-4-(5-(1-methyl-1H-pyrazol-4-yl)-1H-benzo[d]-imidazol-1-yl)pyridin-2-yl)cyclopropanesulfonamide]	43.4	94	
Cn1cc(-c2ccc3c(c2)ncn3-c2cc(-c3ccc(F)cn3)cc(NS(=O)(=O)C3CC3)n2)cn1 [Example 30, N-(5-fluoro-6′-(5-(1-methyl-1H-pyrazol-4-yl)-1H-benzo[d]imidazol-1-yl)-[2,4′-bipyridin]-2′-yl)cyclopropanesulfonamide]	24	96	
Cn1cc(-c2ccc3c(c2)ncn3-c2cc(-c3ccc(F)cc3OC(F)F)cc(NS(=O)(=O)C3CC3)n2)cn1 [Example 40, N-(4-(2-(difluoromethoxy)-4-fluorophenyl)-6-(5-(1-methyl-1H-pyrazol-4-yl)-1H-benzo[d]imidazol-1-yl)pyridin-2-yl)cyclopropanesulfonamide]	293	76	
Cn1cc(-c2ccc3c(c2)ncn3-c2cc(-c3ccc(F)cc3F)nc(NS(=O)(=O)C3CC3)n2)cn1 [Example 41, N-(4-(2,4-difluorophenyl)-6-(5-(1-methyl-1H-pyrazol-4-yl)-1H-benzo[d]-imidazol-1-yl)pyrimidin-2-yl)cyclopropanesulfonamide]	32.7	93	
Cn1cc(-c2ccc3c(c2)ncn3-c2cc(-c3ccccc3F)cc(NS(C)(=O)=O)n2)cn1 [Example 10, N-(4-(2-fluorophenyl)-6-(5-(1-methyl-1H-pyrazol-4-yl)-1H-benzo[d]imidazol-1-yl)pyridin-2-yl)methanesulfonamide]	5.8	97	

Now those with a lower IC50, led by results:

IC50 [nM]	inhibition at 1 µM (compound at 1000 nM) [%]	Inhibition (%) of FGFR1 at 1000 nM (compound at 1000 nM) [%]	SMILES
5.42	99		Cn1cc(-c2ccc3c(c2)ncn3-c2cc(-c3ccccc3F)cc(NS(=O)(=O)C3CC3)n2)cn1 [Example 8, N-(4-(2-fluorophenyl)-6-(5-(1-methyl-1H-pyrazol-4-yl)-1H-benzo[d]imidazol-1-yl)pyridin-2-yl)cyclopropanesulfonamide]
4.7	99		Cn1cc(-c2ccc3c(c2)ncn3-c2cc(-c3ccc(F)cc3F)cc(NS(=O)(=O)C3CC3)n2)nn1 [Example 36, N-(4-(2,4-difluorophenyl)-6-(5-(1-methyl-1H-1,2,3-triazol-4-yl)-1H-benzo[d]-imidazol-1-yl)pyridin-2-yl)cyclopropanesulfonamide]
4.3	98		Cn1cc(-c2ccc3c(c2)ncn3-c2cc(-c3ccc(F)cc3F)cc(NS(C)(=O)=O)n2)cn1 [Example 4, N-(4-(2,4-difluorophenyl)-6-(5-(1-methyl-1H-pyrazol-4-yl)-1H-benzo[d]-imidazol-1-yl)pyridin-2-yl)methanesulfonamide]
2.8	98		CCS(=O)(=O)Nc1cc(-c2ccccc2F)cc(-n2cnc3cc(-c4cnn(C)c4)ccc32)n1 [Example 11, N-(4-(2-fluorophenyl)-6-(5-(1-methyl-1H-pyrazol-4-yl)-1H-benzo[d]imidazol-1-yl)pyridin-2-yl)ethanesulfonamide]
2	99		CCn1cc(-c2ccc3c(c2)ncn3-c2cc(-c3ccc(F)cc3F)cc(NS(=O)(=O)C3CC3)n2)nn1 [Example 35, N-(4-(2,4-difluorophenyl)-6-(5-(1-ethyl-1H-1,2,3-triazol-4-yl)-1H-benzo[d]-imidazol-1-yl)pyridin-2-yl)cyclopropanesulfonamide]
1.7		98	CC(C)S(=O)(=O)Nc1cc(-c2ccc(F)cc2F)cc(-n2cnc3cc(-c4cnn(C)c4)ccc32)n1 [Example 6 (imido), Imido form of N-(4-(2,4-difluorophenyl)-6-(5-(1-methyl-1H-pyrazol-4-yl)-1H-benzo[d]imidazol-1-yl)pyridin-2-yl)propane-2-sulfonamide]
1.5	97		CC(C)S(=O)(=O)Nc1cc(-c2ccccc2F)cc(-n2cnc3cc(-c4cnn(C)c4)ccc32)n1 [Example 12, N-(4-(2-fluorophenyl)-6-(5-(1-methyl-1H-pyrazol-4-yl)-1H-benzo[d]imidazol-1-yl)pyridin-2-yl)propane-2-sulfonamide]
1.3	99		Cn1cnc(-c2ccc3c(c2)ncn3-c2cc(-c3ccc(F)cc3F)cc(NS(=O)(=O)C3CC3)n2)c1 [Example 37, N-(4-(2,4-difluorophenyl)-6-(5-(1-methyl-1H-imidazol-4-yl)-1H-benzo[d]-imidazol-1-yl)pyridin-2-yl)cyclopropanesulfonamide]
1.1	99		CCS(=O)(=O)Nc1cc(-c2ccc(F)cc2F)cc(-n2cnc3cc(-c4cnn(C)c4)ccc32)n1 [Example 5, N-(4-(2,4-difluorophenyl)-6-(5-(1-methyl-1H-pyrazol-4-yl)-1H-benzo[d]-imidazol-1-yl)pyridin-2-yl)ethanesulfonamide]
